Laboratory results published in patent US10760110B2, “Antibiotic testing and screening system” (priority 2017, dated 2020).
Where two headings read alike, the source gives them in different places.

Test system: K. pneumoniae NVT1001 strains with ESBL or AmpC β-lactamase plasmids
Experiment: Etest MIC of β-lactams, OmpK35/36 loss, ΔramR and/or extended-spectrum β-lactamase and AmpC β-lactamase (Table 8)
Assay type: cell-based, Klebsiella pneumoniae
Settings: for MIC: Klebsiella pneumoniae
Description: DNA fragments of the resistance genes along with their flanking regions were amplified from clinical plasmids via PCR with specific primer pairs. The resulting PCR fragments were digested and then cloned into the plasmid pACYC177 or pACYC184. The resulting plasmids were then transformed into K. pneumoniae strain NVT1001 via electroporation. The recombinant bacteria were plated onto LB agar plates containing kanamycin (50 mg/L) or chloramphenicol (50 mg/L), and the presence of the cloned gene was confirmed via PCR and DNA sequencing.
The MICs of antibiotics were determined using the Etest (Biodisk AB, Sweden) according to the manufacturer's instructions. The MICs from the Etest, which fall between standard two-fold dilutions, were rounded up to the next highest two-fold value. The MICs of ceftazidime and cefotaxime against K. pneumoniae NVT1001 harbouring the pACYC177 plasmid with blaOXA-48 were further determined using a broth microdilution test according to the recommendations of the CLSI,^25 and the results were interpreted according to the breakpoints established by the CLSI in 2017.^25 Meanwhile, due to the lack of CLSI breakpoints in 2016 and 2017, the results for cephalothin were interpreted according to the breakpoints established by the CLSI in 2015,^26 and the results for moxifloxacin were interpreted according to the breakpoints established by the EUCAST in 2017.^27

[1] = CMY-2 on pACYC177, WT (NVT1001), read-out: MIC
[2] = CMY-2 on pACYC177, Δ35 (ΔompK35 mutant)
[3] = CMY-2 on pACYC177, Δ35/36 (ΔompK35/36 mutant)
[4] = CMY-2 on pACYC177, Δ36 (ΔompK36 mutant)
[5] = CMY-2 on pACYC177, ΔramR mutant
[6] = CMY-2 on pACYC177, ΔramRΔ35 (ΔramRΔompK35 mutant)
[7] = CMY-2 on pACYC177, ΔramRΔ35/36 (ΔramRΔompK35/36 mutant)
[8] = CMY-2 on pACYC177, ΔramRΔ36 (ΔramRΔompK36 mutant)
[9] = CTX-M-14 on pACYC177, WT (NVT1001), read-out: MIC
[10] = CTX-M-14 on pACYC177, Δ35 (ΔompK35 mutant)
[11] = CTX-M-14 on pACYC177, Δ35/36 (ΔompK35/36 mutant)
[12] = CTX-M-14 on pACYC177, Δ36 (ΔompK36 mutant)
[13] = CTX-M-14 on pACYC177, ΔramR mutant
[14] = CTX-M-14 on pACYC177, ΔramRΔ35 (ΔramRΔompK35 mutant)
[15] = CTX-M-14 on pACYC177, ΔramRΔ35/36 (ΔramRΔompK35/36 mutant)
[16] = CTX-M-14 on pACYC177, ΔramRΔ36 (ΔramRΔompK36 mutant)
[17] = CTX-M-15 on pACYC177, WT (NVT1001), read-out: MIC
[18] = CTX-M-15 on pACYC177, Δ35 (ΔompK35 mutant)
[19] = CTX-M-15 on pACYC177, Δ35/36 (ΔompK35/36 mutant)
[20] = CTX-M-15 on pACYC177, Δ36 (ΔompK36 mutant)
[21] = CTX-M-15 on pACYC177, ΔramR mutant
[22] = CTX-M-15 on pACYC177, ΔramRΔ35 (ΔramRΔompK35 mutant)
[23] = CTX-M-15 on pACYC177, ΔramRΔ35/36 (ΔramRΔompK35/36 mutant)
[24] = CTX-M-15 on pACYC177, ΔramRΔ36 (ΔramRΔompK36 mutant)
[25] = DHA-1-AmpR on pACYC177, WT (NVT1001), read-out: MIC
[26] = DHA-1-AmpR on pACYC177, Δ35 (ΔompK35 mutant)
[27] = DHA-1-AmpR on pACYC177, Δ35/36 (ΔompK35/36 mutant)
[28] = DHA-1-AmpR on pACYC177, Δ36 (ΔompK36 mutant)
[29] = DHA-1-AmpR on pACYC177, ΔramR mutant
[30] = DHA-1-AmpR on pACYC177, ΔramRΔ35 (ΔramRΔompK35 mutant)
[31] = DHA-1-AmpR on pACYC177, ΔramRΔ35/36 (ΔramRΔompK35/36 mutant)
[32] = DHA-1-AmpR on pACYC177, ΔramRΔ36 (ΔramRΔompK36 mutant)
[33] = SHV-12 on pACYC177, WT (NVT1001), read-out: MIC
[34] = SHV-12 on pACYC177, Δ35 (ΔompK35 mutant)
[35] = SHV-12 on pACYC177, Δ35/36 (ΔompK35/36 mutant)
[36] = SHV-12 on pACYC177, Δ36 (ΔompK36 mutant)
[37] = SHV-12 on pACYC177, ΔramR mutant
[38] = SHV-12 on pACYC177, ΔramRΔ35 (ΔramRΔompK35 mutant)
[39] = SHV-12 on pACYC177, ΔramRΔ35/36 (ΔramRΔompK35/36 mutant)
[40] = SHV-12 on pACYC177, ΔramRΔ36 (ΔramRΔompK36 mutant)
[41] = no supplemental plasmid, WT (NVT1001), read-out: MIC
[42] = no supplemental plasmid, Δ35 (ΔompK35 mutant)
[43] = no supplemental plasmid, Δ35/36 (ΔompK35/36 mutant)
[44] = no supplemental plasmid, Δ36 (ΔompK36 mutant)
[45] = no supplemental plasmid, ΔramR mutant
[46] = no supplemental plasmid, ΔramRΔ35 (ΔramRΔompK35 mutant)
[47] = no supplemental plasmid, ΔramRΔ35/36 (ΔramRΔompK35/36 mutant)
[48] = no supplemental plasmid, ΔramRΔ36 (ΔramRΔompK36 mutant)

CC(=O)OCC1=C(C(=O)O)N2C(=O)[C@@H](NC(=O)Cc3cccs3)[C@H]2SC1 [Cephalothin]
MIC [1]: > 256 µg/mL | MIC [2]: > 256 µg/mL | MIC [3]: > 256 µg/mL | MIC [4]: > 256 µg/mL | MIC [5]: > 256 µg/mL | MIC [6]: > 256 µg/mL | MIC [7]: > 256 µg/mL | MIC [8]: > 256 µg/mL | MIC [9]: > 256 µg/mL | MIC [10]: > 256 µg/mL | MIC [11]: > 256 µg/mL | MIC [12]: > 256 µg/mL | MIC [13]: > 256 µg/mL | MIC [14]: > 256 µg/mL | MIC [15]: > 256 µg/mL | MIC [16]: > 256 µg/mL | MIC [17]: > 256 µg/mL | MIC [18]: > 256 µg/mL | MIC [19]: > 256 µg/mL | MIC [20]: > 256 µg/mL | MIC [21]: > 256 µg/mL | MIC [22]: > 256 µg/mL | MIC [23]: > 256 µg/mL | MIC [24]: > 256 µg/mL | MIC [25]: > 256 µg/mL | MIC [26]: > 256 µg/mL | MIC [27]: > 256 µg/mL | MIC [28]: > 256 µg/mL | MIC [29]: > 256 µg/mL | MIC [30]: > 256 µg/mL | MIC [31]: > 256 µg/mL | MIC [32]: > 256 µg/mL | MIC [33]: > 256 µg/mL | MIC [34]: > 256 µg/mL | MIC [35]: > 256 µg/mL | MIC [36]: > 256 µg/mL | MIC [37]: > 256 µg/mL | MIC [38]: > 256 µg/mL | MIC [39]: > 256 µg/mL | MIC [40]: > 256 µg/mL | MIC [41]: 8 µg/mL | MIC [42]: 8 µg/mL | MIC [43]: 256 µg/mL | MIC [44]: 16 µg/mL | MIC [45]: 64 µg/mL | MIC [46]: 64 µg/mL | MIC [47]: > 256 µg/mL | MIC [48]: > 256 µg/mL

C[C@@H](O)[C@H]1C(=O)N2C(C(=O)O)=C(S[C@@H]3CN[C@H](CNS(N)(=O)=O)C3)[C@H](C)[C@H]12 [Doripenem]
MIC [1]: 0.25 µg/mL | MIC [2]: 0.25 µg/mL | MIC [3]: 8 µg/mL | MIC [4]: 1 µg/mL | MIC [5]: 0.125 µg/mL | MIC [6]: 0.125 µg/mL | MIC [7]: 4 µg/mL | MIC [8]: 4 µg/mL | MIC [9]: 0.125 µg/mL | MIC [10]: 0.125 µg/mL | MIC [11]: 1 µg/mL | MIC [12]: 0.125 µg/mL | MIC [13]: 0.06 µg/mL | MIC [14]: 0.06 µg/mL | MIC [15]: 0.5 µg/mL | MIC [16]: 0.5 µg/mL | MIC [17]: 0.125 µg/mL | MIC [18]: 0.125 µg/mL | MIC [19]: 4 µg/mL | MIC [20]: 0.25 µg/mL | MIC [21]: 0.125 µg/mL | MIC [22]: 0.125 µg/mL | MIC [23]: 2 µg/mL | MIC [24]: 2 µg/mL | MIC [25]: 0.125 µg/mL | MIC [26]: 0.125 µg/mL | MIC [27]: 8 µg/mL | MIC [28]: 0.25 µg/mL | MIC [29]: 0.125 µg/mL | MIC [30]: 0.125 µg/mL | MIC [31]: 4 µg/mL | MIC [32]: 4 µg/mL | MIC [33]: 0.125 µg/mL | MIC [34]: 0.125 µg/mL | MIC [35]: 1 µg/mL | MIC [36]: 0.125 µg/mL | MIC [37]: 0.06 µg/mL | MIC [38]: 0.06 µg/mL | MIC [39]: 0.5 µg/mL | MIC [40]: 0.5 µg/mL | MIC [41]: 0.06 µg/mL | MIC [42]: 0.06 µg/mL | MIC [43]: 0.125 µg/mL | MIC [44]: 0.06 µg/mL | MIC [45]: 0.03 µg/mL | MIC [46]: 0.03 µg/mL | MIC [47]: 0.5 µg/mL | MIC [48]: 0.25 µg/mL | effects on the MIC (production of ESBLs tested alone): no significant (≥4-fold) effects | effects on the MIC (strains with ΔramR, with or without ESBLs or AmpC β-lactamases): no significant (≥4-fold) effects
